Assay results from patent publication US7964104B2, “Active antiseptic water or active water-based fluid, and production method and apparatus for the same” (Japan Techno Co., Ltd., priority 2003, dated 2011).

Conditions: level of nitrite and sulfite ions in the water

nitrite and sulfite ions
Level at which the antiseptic effect is inadequate: less than 0.08 mg/L
